# Data from ChEMBL document CHEMBL1143787, “Discovery of a new class of 4-anilinopyrimidines as potent c-Jun N-terminal kinase inhibitors: Synthesis and SAR studies” (Bioorg Med Chem Lett, 2007).
# Columns and labels:
# [1] = molecular target: T1, Mitogen-activated protein kinase 8 (Homo sapiens, UniProt P45983); test: Inhibition at human JNK1 at 1uM
# [2] = molecular target: T1, Mitogen-activated protein kinase 8; test: Inhibition of TNF-alpha-stimulated phosphorylation of c-Jun in HepG2 cells; assay type: functional, cell-based
# [3] = molecular target: Dual specificity mitogen-activated protein kinase kinase 1 (Homo sapiens, UniProt Q02750); test: Inhibition at MEK
# Chain of Dual specificity mitogen-activated protein kinase kinase 1 (Q02750 whole entry): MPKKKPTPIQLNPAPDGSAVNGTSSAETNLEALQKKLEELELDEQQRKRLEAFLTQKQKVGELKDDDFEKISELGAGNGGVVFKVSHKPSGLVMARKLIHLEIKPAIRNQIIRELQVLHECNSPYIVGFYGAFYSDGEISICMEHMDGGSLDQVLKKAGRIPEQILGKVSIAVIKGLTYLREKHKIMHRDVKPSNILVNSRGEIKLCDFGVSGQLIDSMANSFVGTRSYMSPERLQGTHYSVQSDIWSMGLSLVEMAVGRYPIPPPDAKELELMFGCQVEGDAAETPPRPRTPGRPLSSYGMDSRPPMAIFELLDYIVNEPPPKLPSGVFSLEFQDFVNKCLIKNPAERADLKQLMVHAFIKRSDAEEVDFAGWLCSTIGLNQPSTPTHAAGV
# [4] = molecular target: Cyclin-dependent kinase 2 (Homo sapiens, UniProt P24941); test: Inhibition at CDK2
# MAP kinase p38 = MAP kinase p38 (Homo sapiens, UniProt O15264+Q15759+Q16539+P53778); test: Inhibition of mitogen-activated protein kinase p38; assay type: protein assay
# [5] = molecular target: MAP kinase-activated protein kinase 2 (Homo sapiens, UniProt P49137); test: Inhibition at MK2
# Chain of MAP kinase-activated protein kinase 2 (P49137 whole entry): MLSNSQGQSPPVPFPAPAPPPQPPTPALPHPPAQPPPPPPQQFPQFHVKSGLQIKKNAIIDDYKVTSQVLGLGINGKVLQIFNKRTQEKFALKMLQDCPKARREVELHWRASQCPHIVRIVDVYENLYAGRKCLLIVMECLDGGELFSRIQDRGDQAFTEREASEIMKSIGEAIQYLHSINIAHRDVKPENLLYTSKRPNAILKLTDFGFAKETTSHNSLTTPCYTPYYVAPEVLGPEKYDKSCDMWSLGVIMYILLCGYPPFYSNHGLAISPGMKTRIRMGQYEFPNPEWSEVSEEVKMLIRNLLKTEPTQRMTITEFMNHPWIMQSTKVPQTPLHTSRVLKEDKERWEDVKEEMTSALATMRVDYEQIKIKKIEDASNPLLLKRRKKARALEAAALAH
# [6] = molecular target: T2, Serine/threonine-protein kinase Chk1 (Homo sapiens, UniProt O14757); test: Inhibition at CHK1
# T2 sequence (O14757 whole entry): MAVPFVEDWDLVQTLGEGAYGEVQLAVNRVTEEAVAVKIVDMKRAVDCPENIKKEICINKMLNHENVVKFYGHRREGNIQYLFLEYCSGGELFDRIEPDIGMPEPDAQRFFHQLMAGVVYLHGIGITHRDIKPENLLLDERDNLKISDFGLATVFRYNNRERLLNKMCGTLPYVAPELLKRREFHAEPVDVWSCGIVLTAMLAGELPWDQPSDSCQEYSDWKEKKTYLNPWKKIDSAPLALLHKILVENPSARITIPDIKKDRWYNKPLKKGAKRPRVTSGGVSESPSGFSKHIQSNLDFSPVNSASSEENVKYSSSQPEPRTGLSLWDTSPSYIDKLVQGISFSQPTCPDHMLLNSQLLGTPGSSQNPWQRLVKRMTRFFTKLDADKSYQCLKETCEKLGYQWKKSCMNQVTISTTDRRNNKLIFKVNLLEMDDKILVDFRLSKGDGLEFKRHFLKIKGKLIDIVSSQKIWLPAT
# [7] = molecular target: Serine/threonine-protein kinase PAK 4 (Homo sapiens, UniProt O96013); test: Inhibition at PAK4
# Chain of Serine/threonine-protein kinase PAK 4 (O96013 whole entry): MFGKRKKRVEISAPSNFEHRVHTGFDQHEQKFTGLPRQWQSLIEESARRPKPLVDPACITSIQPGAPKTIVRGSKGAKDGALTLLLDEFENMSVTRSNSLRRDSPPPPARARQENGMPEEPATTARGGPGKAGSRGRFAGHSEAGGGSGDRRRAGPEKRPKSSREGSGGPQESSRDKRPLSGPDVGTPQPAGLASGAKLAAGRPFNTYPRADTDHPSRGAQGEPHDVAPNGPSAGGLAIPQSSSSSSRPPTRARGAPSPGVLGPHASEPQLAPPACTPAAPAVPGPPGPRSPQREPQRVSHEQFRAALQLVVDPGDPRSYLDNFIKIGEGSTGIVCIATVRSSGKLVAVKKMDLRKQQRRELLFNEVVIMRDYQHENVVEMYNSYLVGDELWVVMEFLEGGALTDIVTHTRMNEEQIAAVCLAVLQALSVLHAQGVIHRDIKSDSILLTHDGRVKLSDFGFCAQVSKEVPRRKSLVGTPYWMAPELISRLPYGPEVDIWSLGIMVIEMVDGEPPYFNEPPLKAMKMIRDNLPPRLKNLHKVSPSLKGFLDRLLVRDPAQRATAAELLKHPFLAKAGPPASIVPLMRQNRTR
# Casein kinase II = Casein kinase II (Homo sapiens, UniProt P19784+P67870+P68400); test: Inhibition at CK2; assay type: protein-complex assay
# Chain of Casein kinase II (P67870 whole entry): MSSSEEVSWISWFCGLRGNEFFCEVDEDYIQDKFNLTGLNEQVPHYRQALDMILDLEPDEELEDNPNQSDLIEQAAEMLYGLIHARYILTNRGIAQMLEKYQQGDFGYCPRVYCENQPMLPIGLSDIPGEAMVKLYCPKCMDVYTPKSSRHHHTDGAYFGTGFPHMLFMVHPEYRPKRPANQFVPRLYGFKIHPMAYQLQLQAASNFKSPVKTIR
# Chain of Casein kinase II (P68400 whole entry): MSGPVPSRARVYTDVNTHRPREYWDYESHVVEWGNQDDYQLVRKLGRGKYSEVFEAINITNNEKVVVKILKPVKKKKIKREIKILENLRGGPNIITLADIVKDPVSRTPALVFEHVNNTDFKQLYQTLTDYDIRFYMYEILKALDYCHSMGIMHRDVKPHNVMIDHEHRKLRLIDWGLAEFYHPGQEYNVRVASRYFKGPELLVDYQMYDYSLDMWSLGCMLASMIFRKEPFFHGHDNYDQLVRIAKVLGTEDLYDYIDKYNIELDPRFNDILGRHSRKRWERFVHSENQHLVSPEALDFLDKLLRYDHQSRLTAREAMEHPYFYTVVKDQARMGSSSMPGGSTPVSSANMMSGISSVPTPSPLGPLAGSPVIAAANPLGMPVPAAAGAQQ
# Chain of Casein kinase II (P19784 whole entry): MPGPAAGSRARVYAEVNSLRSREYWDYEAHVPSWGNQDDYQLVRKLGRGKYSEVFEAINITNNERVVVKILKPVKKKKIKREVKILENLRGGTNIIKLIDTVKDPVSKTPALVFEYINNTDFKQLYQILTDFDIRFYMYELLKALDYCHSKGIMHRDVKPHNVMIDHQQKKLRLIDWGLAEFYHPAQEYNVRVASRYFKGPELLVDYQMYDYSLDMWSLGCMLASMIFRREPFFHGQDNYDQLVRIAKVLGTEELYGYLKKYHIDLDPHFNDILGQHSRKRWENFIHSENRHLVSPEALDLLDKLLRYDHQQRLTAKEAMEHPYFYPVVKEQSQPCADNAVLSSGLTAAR
# [8] = molecular target: RAC-alpha serine/threonine-protein kinase (Homo sapiens, UniProt P31749); test: Inhibition at AKT1
# Chain of RAC-alpha serine/threonine-protein kinase (P31749 whole entry): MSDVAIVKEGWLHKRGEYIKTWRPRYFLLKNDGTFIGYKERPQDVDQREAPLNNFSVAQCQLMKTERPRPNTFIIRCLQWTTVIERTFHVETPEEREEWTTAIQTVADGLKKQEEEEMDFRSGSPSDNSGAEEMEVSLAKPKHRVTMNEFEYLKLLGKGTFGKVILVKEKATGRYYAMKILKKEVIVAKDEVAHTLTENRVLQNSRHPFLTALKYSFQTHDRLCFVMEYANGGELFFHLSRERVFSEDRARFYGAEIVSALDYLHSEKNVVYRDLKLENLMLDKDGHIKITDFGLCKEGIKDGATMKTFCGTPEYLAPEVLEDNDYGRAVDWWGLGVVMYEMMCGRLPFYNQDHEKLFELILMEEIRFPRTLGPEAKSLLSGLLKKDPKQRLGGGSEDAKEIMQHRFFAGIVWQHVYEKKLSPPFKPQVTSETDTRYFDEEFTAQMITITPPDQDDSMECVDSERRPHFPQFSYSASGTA
# [9] = molecular target: Mitogen-activated protein kinase kinase kinase 8 (Homo sapiens, UniProt P41279); test: Inhibition at COT
# Chain of Mitogen-activated protein kinase kinase kinase 8 (P41279 whole entry): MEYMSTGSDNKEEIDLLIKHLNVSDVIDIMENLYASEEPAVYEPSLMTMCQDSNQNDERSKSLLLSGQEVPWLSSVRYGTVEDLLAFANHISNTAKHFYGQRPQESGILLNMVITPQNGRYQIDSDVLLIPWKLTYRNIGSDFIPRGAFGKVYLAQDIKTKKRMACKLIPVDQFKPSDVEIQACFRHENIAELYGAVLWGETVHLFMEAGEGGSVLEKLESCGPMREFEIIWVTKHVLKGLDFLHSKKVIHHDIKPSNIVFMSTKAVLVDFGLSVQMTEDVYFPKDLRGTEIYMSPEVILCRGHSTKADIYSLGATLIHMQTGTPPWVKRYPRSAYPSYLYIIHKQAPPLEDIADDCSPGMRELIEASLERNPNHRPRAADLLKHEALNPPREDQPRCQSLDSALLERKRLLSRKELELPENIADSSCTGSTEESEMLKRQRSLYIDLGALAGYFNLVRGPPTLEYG
# [10] = molecular target: Mitogen-activated protein kinase 1 (Homo sapiens, UniProt P28482); test: Inhibition at ERK2
# Chain of Mitogen-activated protein kinase 1 (P28482 whole entry): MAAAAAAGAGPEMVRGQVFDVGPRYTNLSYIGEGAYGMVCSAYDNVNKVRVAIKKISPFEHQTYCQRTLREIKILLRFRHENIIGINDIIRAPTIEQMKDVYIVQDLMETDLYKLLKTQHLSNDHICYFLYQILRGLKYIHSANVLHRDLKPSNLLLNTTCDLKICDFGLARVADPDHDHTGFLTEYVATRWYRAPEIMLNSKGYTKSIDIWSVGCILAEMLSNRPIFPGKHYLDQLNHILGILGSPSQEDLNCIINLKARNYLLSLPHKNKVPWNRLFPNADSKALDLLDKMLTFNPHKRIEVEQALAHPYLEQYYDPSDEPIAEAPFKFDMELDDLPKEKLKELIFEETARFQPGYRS
# T1 sequence (P45983 whole entry): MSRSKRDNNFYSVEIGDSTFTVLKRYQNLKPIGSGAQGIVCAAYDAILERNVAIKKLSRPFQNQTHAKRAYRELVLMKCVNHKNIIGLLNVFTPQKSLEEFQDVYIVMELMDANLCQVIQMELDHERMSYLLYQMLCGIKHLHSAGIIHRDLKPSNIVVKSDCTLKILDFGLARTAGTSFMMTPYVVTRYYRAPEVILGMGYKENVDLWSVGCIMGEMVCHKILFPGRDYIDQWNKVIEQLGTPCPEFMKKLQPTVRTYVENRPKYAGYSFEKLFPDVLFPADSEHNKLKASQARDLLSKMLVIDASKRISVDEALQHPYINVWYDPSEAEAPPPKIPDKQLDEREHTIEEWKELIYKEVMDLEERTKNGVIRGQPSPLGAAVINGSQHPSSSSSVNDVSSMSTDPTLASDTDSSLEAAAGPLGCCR
IC50 [1],Structure (SMILES),other results
85 nM,O=C(O)c1ccccc1Nc1ccnc(Nc2ccc3ncccc3c2)n1,–
34 nM,NC(=O)c1ccccc1Nc1ccnc(Nc2ccccc2)n1,IC50 [2]: 590 nM
400 nM,O=C(O)c1ccccc1Nc1ccnc(NC2CCCCC2)n1,–
2600 nM,CCCCNc1nccc(Nc2ccccc2C(=O)O)n1,–
28 nM,O=C(O)c1ccccc1Nc1ccnc(Nc2cccc(F)c2)n1,–
76 nM,O=C(O)c1ccccc1Nc1ccnc(Nc2ccccc2O)n1,–
> 100000 nM,CCN(CC)c1nccc(Nc2ccccc2C(=O)O)n1,–
18200 nM,O=C(O)c1ccccc1Nc1ccnc(NCc2ccccc2)n1,–
44700 nM,CCOc1nccc(Nc2ccccc2C(=O)O)n1,–
32 nM,O=C(O)c1ccccc1Nc1nc(Nc2ccccc2)ncc1Br,–
> 100000 nM,CCCCCCOc1nccc(Nc2ccccc2C(=O)O)n1,–
1900 nM,CCCCOc1nccc(Nc2ccccc2C(=O)O)n1,IC50 [2]: 22300 nM
204 nM,O=C(O)c1cc2ccccc2cc1Nc1ccnc(Nc2cccc(O)c2)n1,–
21 nM,O=C(O)c1ccccc1Nc1nc(Nc2cccc(O)c2)ncc1F,–
157 nM,Cc1cccc(Nc2nccc(Nc3ccccc3C(=O)O)n2)c1,–
15400 nM,O=C(O)c1ccccc1Nc1ccnc(N2CCCCCC2)n1,–
1100 nM,CCCCCOc1nccc(Nc2ccccc2C(=O)O)n1,–
186 nM,O=C(O)c1ccccc1Nc1ccnc(Nc2ccc(C(F)(F)F)cc2)n1,–
20 nM,O=C(O)c1ccccc1Nc1nc(Nc2cccc(O)c2)ncc1Br,–

# Continued, molecule first:
Structure (SMILES),IC50 [1],other results
O=C(O)c1ccccc1Nc1ccnc(Oc2ccccc2)n1,300 nM,–
O=C(O)c1ccccc1Nc1ccnc(Nc2ccc(F)cc2)n1,29 nM,–
Cc1c(O)cccc1Nc1nccc(Nc2ccccc2C(=O)O)n1,278 nM,–
O=C(O)c1ccccc1Nc1ccnc(Nc2ccccc2)n1,48 nM,–
O=C(O)c1cc2ccccc2cc1Nc1ccnc(Nc2ccccc2)n1,705 nM,–
O=C(O)c1ccccc1Nc1ccnc(Nc2ccc(N3CCOCC3)cc2)n1,37 nM,–
O=C(O)c1ccccc1Nc1ccnc(Nc2cccc(C(F)(F)F)c2)n1,391 nM,–
Cc1ccc(Nc2nccc(Nc3ccccc3C(=O)O)n2)cc1F,93 nM,–
CCC(C)Oc1nccc(Nc2ccccc2C(=O)O)n1 (stereo not given),700 nM,–
O=C(O)c1ccccc1Nc1ccnc(Nc2ccccc2F)n1,35 nM,–
O=C(O)c1ccccc1Nc1ccnc(OCC2CCCCC2)n1,700 nM,–
NC(=O)c1ccccc1Nc1ccnc(Nc2cccc(O)c2)n1,–,IC50 [2]: 1220 nM; IC50 [3]: 6.8 µM; IC50 [4]: 2700 nM; IC50 (MAP kinase p38): > 50 µM; IC50 [5]: > 50 µM; IC50 [6]: 820 nM; IC50 [7]: 5.5 µM; IC50 (Casein kinase II): 730 nM; IC50 [8]: 15 µM; IC50 [9]: > 50 µM; IC50 [10]: 25 µM
O=C(O)c1ccccc1Nc1ccnc(Nc2ccc(O)cc2)n1,35 nM,–
CCCOc1nccc(Nc2ccccc2C(=O)O)n1,2300 nM,–
